Tests used:
Caco-2 cell monolayers = test: Caco-2 cell permeability; assay type: in vitro ADME, human; details: polarized Caco-2 cell monolayers
[1] = tested on: human induced pluripotent stem cell (iPSC)-derived cardiomyocytes, iCell Cardiomyocytes2; test: Cardiac safety assay, Ca2+ oscillation in iPSC-derived cardiomyocytes; details: 60 minutes, n = 3

Caco-2 cell permeability Class (Caco-2 cell monolayers) | SMILES | Effect on pulse waveforms and beat intervals (Ca2+ oscillation) ([1]; 0.2 μM) | Effect on pulse waveforms and beat intervals (Ca2+ oscillation) ([1]; 2 μM) | Effect on pulse waveforms and beat intervals (Ca2+ oscillation) ([1]; 20 μM)
High | O=C(C1CCCCC1)N1CON2CCc3ccccc3C2C1 (centres unmarked) [Compound 4] | did not affect the pulse waveforms and beat intervals | the pulse waveforms remained unchanged, but a slight shortening of beat intervals was observed for up to 30 minutes post-addition | did not alter the pulse waveforms, but resulted in shortened beat intervals
High | O=C(C1CCCCC1)N1CC(=O)N2CCc3ccccc3C2C1 (centres unmarked) [PZQ, praziquantel, reference compound] | – | – | –

From publication PMC11467761 (RSC Medicinal Chemistry, 2024)
